US6358885B1, “Substituted phenylheterocyclic herbicides” (Mississippi State University, priority 1992, dated 2002)

Assays:
giant foxtail = test: Test C preemergence/postemergence greenhouse plant response rating 0 to 100; assay type: in vivo, Setaria faberii; settings: POSTEMERGENCE; for Plant response rating, Giant foxtail: 0 to 100 scale
Text: (§1) The compounds evaluated in this test were formulated in a non-phytoxic solvent and applied to the soil surface before plant seedlings emerged (preemergence application), to water that covered the soil surface (flood application), and to plants that were in the one-to-four leaf stage (postemergence application). A sandy loam soil was used for the preemergence and postemergence tests, while a silt loam soil was used in the flood test. Water depth was approximately 2.5 cm for the flood test and was maintained at this level for the duration of the test. Plant species in the preemergence and postemergence tests consisted of barley (Hordeum vulgare), bedstraw (Galium aparine), blackgrass (Alopecurus myosuroides), chickweed (Stellaria media), corn (Zea mays), cotton (Gossypium hirsutum), crabgrass (Digitaria sanguinalis), downy brome (Bromus tectorum), giant foxtail (Setaria faberii), lambsquarters (Chenopodium album), morningglory (Ipomoea hederacea), pigweed ([…]), rape (Brassica napus), ryegrass (Lolium multiflorum), sorghum (Sorghum bicolor), soybean (Glycine max), speedwell (Veronica persica), sugar beet (Beta vulgaris), velvetleaf (Abutilon theophrasti), wheat (Triticum aestivum), wild buckwheat (Polygonum convolvulus), and wild oat (Avena fatua). All plant species were planted one day before application of the compound for the preemergence portion-of this test. Plantings of these species were adjusted to produce plants of appropriate size for the post-emergence portion of the test. […] All plant species were grown using normal greenhouse practices. Visual evaluations of injury expressed on treated plants, when compared to untreated controls, were recorded approximately fourteen to twenty one days after application of the test compound. […] A dash (-) response means no test result.

wheat = test: as above; assay type: in vivo, Triticum aestivum; settings: POSTEMERGENCE; for Plant response rating, Wheat: 0 to 100 scale
Text: as §1

corn [1] = test: as above; assay type: in vivo, Zea mays; settings: POSTEMERGENCE; for Plant response rating, Corn: 0 to 100 scale
Text: as §1

bedstraw [2] = test: as above; assay type: in vivo, Galium aparine; settings: POSTEMERGENCE; for Plant response rating, Bedstraw: 0 to 100 scale
Text: as §1

velvetleaf = test: as above; assay type: in vivo, Abutilon theophrasti; settings: POSTEMERGENCE; for Plant response rating, Velvetleaf: 0 to 100 scale
Text: as §1

bedstraw [3] = test: Test B preemergence/postemergence greenhouse plant response rating 0 to 10; assay type: in vivo, Galium aparine; settings: for Plant response rating, Bedstraw: 0 to 10 scale
Summary of the method: (§2)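 Test chemicals, dissolved in a non-phytotoxic solvent, were applied to soil at planting and, at the same time, over foliage of seedlings at the one to four leaf stage.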

corn [4] = test: as above; assay type: in vivo, Zea mays; settings: for Plant response rating, Corn: 0 to 10 scale
Summary of the method: as §2

barnyardgrass = test: Test C flood test plant response rating 0 to 100; assay type: in vivo, Echinochloa crus-galli; settings: for Plant response rating (0 to 100), Barnyardgrass: under POSTEMERGENCE head (flood test species); for Plant response rating, Barnyardgrass: flood test species listed under POSTEMERGENCE, 0 to 100 scale
Text: as §1

duck salad = test: Test C flood test plant response rating 0 to 100; assay type: in vivo, Heteranthera limosa; settings: for Plant response rating Duck salad: flood test species listed under POSTEMERGENCE, 0 to 100 scale
Text: as §1

chickweed = test: Test B preemergence/postemergence greenhouse plant response rating 0 to 10; assay type: in vivo, Stellaria media; settings: 0 to 10 scale
Summary of the method: as §2

wild buckwheat = test: as above; assay type: in vivo, Polygonum convolvulus; settings: 0 to 10 scale
Summary of the method: as §2

sugar beet = test: as above; assay type: in vivo, Beta vulgaris; settings: 0 to 10 scale
Summary of the method: as §2

morningglory = test: Test C preemergence/postemergence greenhouse plant response rating 0 to 100; assay type: in vivo, Ipomoea hederacea; settings: POSTEMERGENCE; for Plant response rating, Morningglory: 0 to 100 scale
Text: as §1

downy brome = test: as above; assay type: in vivo, Bromus tectorum; settings: POSTEMERGENCE; for Plant response rating Downy Brome: 0 to 100 scale
Text: as §1

cotton = test: as above; assay type: in vivo, Gossypium hirsutum; settings: POSTEMERGENCE; for Plant response rating, Cotton: 0 to 100 scale
Text: as §1

sorghum = test: as above; assay type: in vivo, Sorghum bicolor; settings: POSTEMERGENCE; for Plant response rating, Sorghum: 0 to 100 scale
Text: as §1

wild oat = test: as above; assay type: in vivo, Avena fatua; settings: POSTEMERGENCE; for Plant response rating, Wild oat: 0 to 100 scale
Text: as §1

For `COC(=O)C(C)Oc1cc(-c2nn3c(c2Cl)CCCC3)c(F)cc1Cl` (stereo not shown) [Compound 28], the “Plant response rating, Giant foxtail” value (giant foxtail; 62 g/ha) was 100, the “Plant response rating, Giant foxtail” value (giant foxtail; 250 g/ha) was 100 and the “Plant response rating (0 to 100), Giant foxtail” value (giant foxtail; Rate 4 g/ha) was 20. The “Plant response rating (0 to 100), Giant foxtail” value (giant foxtail; Rate 16 g/ha) was 60, the “Plant response rating, Wheat” value (wheat; 62 g/ha) was 70 and the “Plant response rating, Wheat” value (wheat; 250 g/ha) was 100. The “Plant response rating (0 to 100), Wheat” value (wheat; Rate 4 g/ha) was 40, the “Plant response rating (0 to 100), Wheat” value (wheat; Rate 16 g/ha) was 60 and the “Plant response rating, Corn” value (corn [1]; 62 g/ha) was 80. For the same compound, the “Plant response rating, Corn” value (corn [1]; 250 g/ha) was 90, the “Plant response rating (0 to 100), Corn” value (corn [1]; Rate 4 g/ha) was 20 and the “Plant response rating (0 to 100), Corn” value (corn [1]; Rate 16 g/ha) was 25. For the same compound, the “Plant response rating, Bedstraw” value (bedstraw [2]; 62 g/ha) was 100, the “Plant response rating, Bedstraw” value (bedstraw [2]; 250 g/ha) was 100 and the “Plant response rating (0 to 100), Bedstraw” value (bedstraw [2]; Rate 4 g/ha) was 90. The “Plant response rating (0 to 100), Bedstraw” value (bedstraw [2]; Rate 16 g/ha) was 100, the “Plant response rating, Velvetleaf” value (velvetleaf; 62 g/ha) was 100 and the “Plant response rating, Velvetleaf” value (velvetleaf; 250 g/ha) was 100. For the same compound, the “Plant response rating (0 to 100), Velvetleaf” value (velvetleaf; Rate 4 g/ha) was 100, the “Plant response rating (0 to 100), Velvetleaf” value (velvetleaf; Rate 16 g/ha) was 100 and the “Plant response rating (0 to 10 scale), Bedstraw” value (bedstraw [3]; POSTEMERGENCE, Rate 50 g/ha) was 9. For the same compound, the “Plant response rating, Bedstraw” value (bedstraw [3]; POSTEMERGENCE, Rate 200 g/ha) was 10, the “Plant response rating, Bedstraw” value (bedstraw [3]; PREEMERGENCE, Rate 50 g/ha) was 8 and the “Plant response rating, Bedstraw” value (bedstraw [3]; Rate 200 g/ha, PREEMERGENCE) was 10. For the same compound, the “Plant response rating (0 to 10 scale), Corn” value (corn [4]; POSTEMERGENCE, Rate 50 g/ha) was 6, the “Plant response rating, Corn” value (corn [4]; POSTEMERGENCE, Rate 200 g/ha) was 9 and the “Plant response rating, Corn” value (corn [4]; PREEMERGENCE, Rate 50 g/ha) was 0. For the same compound, the “Plant response rating, Corn” value (corn [4]; Rate 200 g/ha, PREEMERGENCE) was 2, the “Plant response rating (0 to 100), Barnyardgrass” value (barnyardgrass; Rate 4 g/ha) was 35 and the “Plant response rating (0 to 100), Barnyardgrass” value (barnyardgrass; Rate 16 g/ha) was 50. For the same compound, the “Plant response rating, Barnyardgrass” value (barnyardgrass; 62 g/ha) was 95, the “Plant response rating, Barnyardgrass” value (barnyardgrass; 250 g/ha) was 100 and the “Plant response rating (0 to 100), Duck salad” value (duck salad; POSTEMERGENCE section, flood test, Rate 4 g/ha) was 0. The “Plant response rating (0 to 100), Duck salad” value (duck salad; Rate 16 g/ha, under POSTEMERGENCE head (flood test species)) was 0, the “Plant response rating Duck salad” value (duck salad; 62 g/ha) was 30 and the “Plant response rating Duck salad” value (duck salad; 250 g/ha) was 70. The “Plant response rating, Chickweed” value (chickweed; POSTEMERGENCE, Rate 200 g/ha) was 9, the “Plant response rating, Chickweed” value (chickweed; PREEMERGENCE, Rate 50 g/ha) was 1 and the “Plant response rating, Chickweed” value (chickweed; Rate 200 g/ha, PREEMERGENCE) was 7. The “Plant response rating, Wild buckwheat” value (wild buckwheat; POSTEMERGENCE, Rate 50 g/ha) was 9, the “Plant response rating, Wild buckwheat” value (wild buckwheat; POSTEMERGENCE, Rate 200 g/ha) was 10 and the “Plant response rating, Wild buckwheat” value (wild buckwheat; PREEMERGENCE, Rate 50 g/ha) was 7. For the same compound, the “Plant response rating, Wild buckwheat” value (wild buckwheat; Rate 200 g/ha, PREEMERGENCE) was 7, the “Plant response rating, Sugar beet” value (sugar beet; POSTEMERGENCE, Rate 50 g/ha) was 10 and the “Plant response rating, Sugar beet” value (sugar beet; POSTEMERGENCE, Rate 200 g/ha) was 10. The “Plant response rating, Sugar beet” value (sugar beet; PREEMERGENCE, Rate 50 g/ha) was 10, the “Plant response rating, Sugar beet” value (sugar beet; Rate 200 g/ha, PREEMERGENCE) was 10 and the “Plant response rating, Morningglory” value (morningglory; 62 g/ha) was 100. For the same compound, the “Plant response rating, Morningglory” value (morningglory; 250 g/ha) was 100, the “Plant response rating (0 to 100), Morningglory” value (morningglory; Rate 4 g/ha) was 50 and the “Plant response rating (0 to 100), Morningglory” value (morningglory; Rate 16 g/ha) was 80. For the same compound, the “Plant response rating Downy Brome” value (downy brome; 62 g/ha) was 60, the “Plant response rating Downy Brome” value (downy brome; 250 g/ha) was 100 and the “Plant response rating (0 to 100), Downy Brome” value (downy brome; Rate 4 g/ha) was 10. The “Plant response rating (0 to 100), Downy Brome” value (downy brome; Rate 16 g/ha) was 40, the “Plant response rating, Cotton” value (cotton; 62 g/ha) was 100 and the “Plant response rating, Cotton” value (cotton; 250 g/ha) was 100. For the same compound, the “Plant response rating (0 to 100), Cotton” value (cotton; Rate 4 g/ha) was 100, the “Plant response rating (0 to 100), Cotton” value (cotton; Rate 16 g/ha) was 100 and the “Plant response rating, Sorghum” value (sorghum; 62 g/ha) was 100. For the same compound, the “Plant response rating, Sorghum” value (sorghum; 250 g/ha) was 100, the “Plant response rating (0 to 100), Sorghum” value (sorghum; Rate 4 g/ha) was 20 and the “Plant response rating (0 to 100), Sorghum” value (sorghum; Rate 16 g/ha) was 50. For the same compound, the “Plant response rating, Wild oat” value (wild oat; 62 g/ha) was 50, the “Plant response rating, Wild oat” value (wild oat; 250 g/ha) was 70 and the “Plant response rating (0 to 100), Wild oat” value (wild oat; Rate 4 g/ha) was 20. For the same compound, the “Plant response rating (0 to 100), Wild oat” value (wild oat; Rate 16 g/ha) was 30.
